# In US20040033967A1, “Alkylated hexitol nucleoside analogues and oligomers thereof” (priority 2000, published 2004):
# What was measured:
# Assay type in all cases: binding
# HNA complement = experiment: Tm of hexameric hexitol sequences hybridised with HNA complement; conditions: hexamers
# From the text: (§1) Hybridisation is the sequence specific base pair hydrogen bonding of bases of the oligonucleotide to bases of target RNA or DNA Such base pairs are said to be complementary to one another. In determining the extent of hybridization of an oligonucleotide to a complementary nucleic acid, the relative ability of an oligonucleotide to bind to the complementary nucleic acid may be compared by determining the melting temperature of a particular hybridisation complex. The melting temperature (Tm), a characteristic physical property of double helices, denotes the temperature in degrees centigrade, at which 50% helical (hybridized) versus coil (unhybridized) forms are present. Tm is measured by using the UV spectrum to determine the formation and breakdown (melting) of the hybridisation complex. Base stacking which occurs during hybridisation, is accompanied by a reduction in UV absorption (hypochromicity). Consequently, a reduction […]. The higher the Tm, the greater the strength of the bonds between the strands.
# As an example a study with pyrimidine hexamers was done as depicted in Table 2. […]
# complementary RNA = experiment: Thermal stability of octameric HNA sequences versus RNA; conditions: octamers versus RNA, entries C and D
# From the text: as §1, with “strands. The results in Table 3 confirm the results of Table 2 (example 35). […] The effect is however less than for the duplexes containing ANA or those containing the 5-methyl modification (entry E with a ΔTm/modification=1° C. and C with ΔTm/modification=2° C., respectively). […]” for “strands.”
# RNA complement = experiment: Tm of hexameric hexitol sequences hybridised with RNA complement; conditions: hexamers
# From the text: as §1
# However, this increase is less pronounced than the increase in thermal stability obtained by modifying the nucleobase with a methyl substituent in the 5-position (ΔTm=+1.1° C./modification), (compare entry A and D). […]
SMILES,"ΔTm compared to HNA, pairing with hexitol oligonucleotides (HNA complement; hexitol (HNA, ANA) complements)",increase in Tm compared with the hexitol T reference (complementary RNA) [°C],"ΔTm compared to HNA, pairing with RNA sequences (RNA complement)","ΔTm compared to the unmodified HNA:HNA duplex (HNA complement; complementary HNA, Table 2)"
"COC1O[C@H](CO)[C@@H](O)C[C@@H]1n1cc(C)c(=O)[nH]c1=O (stereo partly drawn) [2.2, Methyl 2-(thymin-1-yl)-2,3-dideoxy-D-arabino-hexopyranoside]",≈ +0.8 ° C./modification,1.6,≈ +0.3 ° C./modification,–
"CO[C@@H]1[C@H](O)[C@@H](CO)OC[C@H]1n1ccc(=O)[nH]c1=O [1.1, 1,5-anhydro-3-O-methyl-2-(uracil-1-yl)-2-deoxy-altro-hexitol]",–,–,–,+0.6 ° C./modification
